Test results reported in US20240252508A1, “Novel glucose uptake inhibitors for use in the treatment of cancer” (NOVELYEAST BV, priority 2021, published 2024).

Tests used:
[1] = tested on: A549 lung adenocarcinoma cells; assay: A549 cell proliferation / growth inhibition; assay type: cell-based, human; conditions: 50 μM compound, 1 mM glucose
Outline: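 A549 growth screened in RPMI with 1 mM glucose, compounds at 50 μM; cell number from counts of Hoechst-stained nuclei after 3 days. Growth curves also followed by IncuCyte phase-contrast confluency over 3–5 days (1000–1500 cells/well), DMSO ≤0.1%, ≥4 technical repeats.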

tps1Δ cells [2] = assay: Growth rescue of tps1Δ strain on glucose (growth curves, 2% galactose medium); assay type: cell-based, S. cerevisiae
Outline: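 tps1Δ yeast pregrown in Complete Synthetic medium with 2% galactose, washed, resuspended to OD 0.1; compounds added 10 min before glucose. Growth followed as OD595 every 30 min at 30 °C in at least three technical replicates.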

tps1Δ cells [3] = assay: Glu6P and Fru1,6bisP levels after glucose addition to tps1Δ cells; assay type: cell-based, S. cerevisiae
Protocol: For measuring metabolite levels, cells were typically grown in Complete Synthetic medium. […] However, when comparing the effect of Warbicins on metabolite profiles of wild type and tps1Δ strains (FIG. 2f-k), cells were grown on 2% galactose. When grown to exponential phase, cells were harvested by centrifugation and washed twice with ice-cold 25 mM 2-(N-Morpholino)ethanesulfonic acid (MES) buffer, pH 6. Cells were suspended in Complete Synthetic medium without sugar at a concentration of 75 mg (wet weight)/mL followed by a temperature equilibration at 30° C. in a shaking water bath for 30 min. Depending on the experiment, a final concentration of 2.5 mM, 7.5 mM or 10 mM glucose was added to the cell suspension. Compounds were added 10 min prior to glucose addition. […]
Through endpoint measurement of the absorbance of NADH or NADPH at 340 nm, metabolite concentrations were calculated by applying Lambert's Law. Different metabolites were measured through the use of coupled enzymatic reactions. […] Depending on the measured metabolite, different co-factors and auxiliary enzymes were added. For measuring glucose-6-phosphate, 0.8 mg/ml NADP^+ was added to the assay buffer after which the baseline absorbance was measured. […] After stabilization of the OD340 spectra, ATP concentrations were measured by additionally adding 10 mM MgCl2 and 0.5 mM glucose to the assay buffer. […]

Cc1nc(SCC(N)=O)c2c3c(sc2n1)CCCC3 [55C]
Selected from primary screen for growth inhibition of A549 cells at 50 μM [1]: No | Rescue of the tps1Δ strain on 2.5 mM glucose at 100 μM (tps1Δ cells [2]; 100 μM compound, 2.5 mM glucose): No | Rescue of tps1Δ cells on 2.5 mM glucose (tps1Δ cells [2]; 100 μM, 2% galactose + 2.5 mM glucose): highly active | Glu6P and Fru1,6bisP hyperaccumulation after addition of 2.5 mM glucose (tps1Δ cells [3]): did not prevent hyperaccumulation of sugar phosphates
